The IC50 is the point on the concentration scale where inhibition reaches its midpoint.

What all share (format): cell-based
Assay [1] relates to CAL33 cells. The assay can be described thus: Colony formation assay, CAL33. Here is the method:
(§1) Crystal violet assays were used to assess relative cell growth and survival after treatment with specific compounds. In general, cells were plated in triplicate in 12-well plates for 24 hours before drug treatments were added using 10% FBS media. The plates were incubated for 14 days, with the media and drug being replaced every 48 hours. The cells were then washed with phosphate-buffered saline and fixed in ice-cold methanol before being stained with 0.5% crystal violet (Sigma-Aldrich) in 25% methanol. Images were taken using a ChemiDoc MP Imaging System (Bio Rad), and for quantification, the crystal violet stain was dissolved in 33% acetic acid, incubated for 20 minutes with shaking, and read at 595 nm using iMark™ Microplate Absorbance Reader (Bio-Rad). Graphs display percent colony formation relative to the DMSO-treated control sample.

Assay [2] deals with BICR56 cells. As to the kind of experiment: Colony formation assay, BICR56. As for the experimental part: as §1
Assay [3] relates to LK2 cells. The assay can be described thus: Colony formation assay, LK2. Here is the method:
as §1

The subject of assay [4] is NCI-H520 cells. As to the kind of experiment: Colony formation assay, NCI-H520. Here is the method: as §1
For assay [5], the system named is CAL33 cells. The assay can be described thus: MTS cell viability assay, CAL33. Here is the method: A Cell Titer 96 AQueous One Solution Cell Proliferation Assay (Promega) was used for MTS assays following the manufacturer's protocol. […] MTS was added, cells were incubated for two hours, and absorbance was measured at 490 nm using iMark™ Microplate Absorbance Reader (Bio-Rad). Graphs display percent cell viability relative to the DMSO-treated control sample. EC50 values were determined using GraphPad Prism 8.
For orientation: Tetrazolium assays rely on reduction of a dye to a coloured formazan, in cell work by metabolically active cells.

In assay [6] the target is T1, LZK (Homo sapiens, UniProt O43283).
T1 sequence (O43283 1-966): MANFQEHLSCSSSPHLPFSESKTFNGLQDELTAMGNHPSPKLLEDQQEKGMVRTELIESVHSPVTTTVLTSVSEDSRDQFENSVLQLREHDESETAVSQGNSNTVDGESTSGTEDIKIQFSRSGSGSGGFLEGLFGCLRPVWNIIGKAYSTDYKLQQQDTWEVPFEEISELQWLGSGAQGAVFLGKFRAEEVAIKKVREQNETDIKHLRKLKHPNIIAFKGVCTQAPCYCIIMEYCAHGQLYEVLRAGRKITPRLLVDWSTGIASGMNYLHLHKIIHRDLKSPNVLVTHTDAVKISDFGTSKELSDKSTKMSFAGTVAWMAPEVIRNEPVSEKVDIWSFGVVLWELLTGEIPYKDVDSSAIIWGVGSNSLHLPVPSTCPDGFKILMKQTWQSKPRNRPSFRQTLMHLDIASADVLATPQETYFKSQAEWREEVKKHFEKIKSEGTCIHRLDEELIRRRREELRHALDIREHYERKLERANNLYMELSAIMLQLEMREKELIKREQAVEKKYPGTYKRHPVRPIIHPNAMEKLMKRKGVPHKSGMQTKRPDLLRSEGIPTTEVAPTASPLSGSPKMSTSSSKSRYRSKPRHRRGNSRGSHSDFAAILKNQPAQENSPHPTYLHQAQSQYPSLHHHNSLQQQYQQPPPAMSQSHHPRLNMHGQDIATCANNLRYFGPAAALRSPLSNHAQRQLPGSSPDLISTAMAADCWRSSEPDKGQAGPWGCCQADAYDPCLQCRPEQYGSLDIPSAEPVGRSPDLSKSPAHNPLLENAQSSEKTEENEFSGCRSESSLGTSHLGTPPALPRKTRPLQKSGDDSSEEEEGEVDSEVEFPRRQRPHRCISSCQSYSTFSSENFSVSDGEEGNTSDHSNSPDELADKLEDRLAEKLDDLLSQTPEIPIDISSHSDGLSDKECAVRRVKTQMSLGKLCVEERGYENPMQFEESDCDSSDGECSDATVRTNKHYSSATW
As to the kind of experiment: LZK inhibition in cells monitored by downstream JNK phosphorylation (dox-induced LZK). Also noted: V5 (named only in the vector); expressed in transfected cells; host or cells: CAL33 HNSCC cells, lentiviral T-REx system, induced with doxycycline. Particulars: for duration of JNK pathway inactivation / time at which LZK activity toward JNK was inhibited: 250 nM; for LZK inhibition in cells, measured by inhibition of downstream JNK pathway activation: dox-inducible LZK in CAL33 cells. The source says:
The ViraPower HiPerform T-REx Gateway Expression System (Invitrogen) was used to generate cells with tetracycline-inducible expression of LZK. In brief, wild-type (WT) or drug-resistant mutant (Q240S) LZK (cloned into pLenti6.3/TO/V5-DEST vector) and pLenti3.3/TR (for tetracycline repressor expression) were transfected into 293FT cells using Lipofectamine 2000 to generate lentiviral stock. Cell lines were generated by antibiotic selection (blasticidin [Gibco] and geneticin [Gibco]). Doxycycline (Sigma-Aldrich) was used at 1 μg/mL to induce LZK expression.
Generally, cells were plated in six-well or 35-mm plates for 24 hours, after which doxycycline was added or treatment with specific inhibitor was administered using […] for 48 hours. After appropriate treatment time, cells were washed with ice-cold phosphate-buffered saline without Ca and Mg (Quality Biological) and then lysed on ice with RIPA buffer (50 mM NaCl, 1.0% o IGEPAL® CA-630, 0.5% o sodium deoxycholate, 0.10% SDS, 50 mM Tris, pH 8.0) (Sigma-Aldrich) supplemented with protease inhibitor tablet (Sigma-Aldrich) and phosphatase inhibitor cocktails 2 and 3 (Sigma-Aldrich) followed by centrifugation at 15,000 rpm for 10 minutes at 4° C. Protein concentrations were determined from the cell lysate by using 660 nm Protein Assay Reagent (Pierce). Cell extracts were denatured, subjected to SDS-PAGE, transferred to PVDF membranes (Bio-Rad) and blocked for 2 hours using 5 bovine serum albumin (BSA) in phosphate-buffered saline and 0.10 Tween® 20 (PBS-T). The membranes were incubated with the specific antibodies overnight in […] at 4° C. followed by a 1 hour incubation with the appropriate horseradish peroxidase-conjugated secondary antibodies and signal was detected by chemiluminescence (Thermo Fisher).
A PathScan® Phospho-SAPK/JNK (Thr183/Tyr185) Sandwich ELISA Assay (Cell Signaling Technology) was used for ELISA assays following the manufacturer's protocol. In general, 500,000 cells were plated and treated with doxycycline the following day where appropriate and incubated at 37° C. for 48 hours. Cells were treated with the drug compound or control in 5% FBS media for 1 hour. After appropriate treatment time, cells were lysed on ice with 1x Cell Lysis Buffer (Cell Signaling Technology) supplemented with phosphatase and protease inhibitors (Sigma). Each diluted cell lysate was added to Phospho-SAPK/JNK (Thr183/Tyr185)Rabbit mAb Coated microwells in triplicate and incubated overnight at 4° C. Samples were treated with the following antibodies and incubated at 37° C. for 1 hour and 30 minutes, respectively: Detection Antibody and HRP-Linked secondary antibody. Samples were washed between treatments using 1× Wash Buffer according to the manufacturer's protocol. TMB substrate was added to each well and incubated at 37° C. for 10 minutes. Following this, STOPsolution was added to each well and absorbance was measured at 450 nm using iMark™ Microplate Absorbance Reader (Bio-Rad). Graphs display relative phospho-JNK levels.

The mark [7] stands for this setting: LZK inhibitor 2, concentration not stated.

The structures appear in SMILES notation.

For the molecule `N#Cc1ccnc(Nc2cc(C3CCN(C4COC4)CC3)cc(N3CCC(F)(F)C3)n2)c1` [GNE-3511], the “reduction in colony formation” value in assay [1] (200 nM, 14 days) is not below 80%; in assay [2] (200 nM, 14 days), not below 80%; in assay [3] (500 nM), 45%; in assay [4] (500 nM), 55%. Also, the IC50 in assay [5] (Homo sapiens, CAL-33, 72 hours, read-out: IC50, viability in short-term MTS assay) was determined as 688 ± 114 nM. In addition, the “LZK activity, as monitored by downstream JNK phosphorylation” value in assay [6] (100 nM to 5 μM at 1 hour) is “inhibited LZK activity”. Further, the “duration of JNK pathway inactivation” value in assay [6] was “up to 72 hours”. Also, the “time at which LZK activity toward JNK was inhibited” value in assay [6] is not above 15 min. Moreover, in assay [6], the “LZK inhibition in cells, measured by inhibition of downstream JNK pathway activation” value is recorded as “potent LZK inhibitor in cells”.

Take `CC(=O)N1CCC(c2cc(Nc3cc(C#N)ccn3)nc(N3CCC(F)(F)C3)c2)CC1` [LZK inhibitor 2]: in assay [1] (setting [7]), the colony formation result is on record as “suppressed colony formation”. Moreover, in assay [2] (setting [7]), the colony formation result is “suppressed colony formation”. In addition, in assay [3] (1 μM), the LSCC cell growth result is “significantly decreased LSCC cell growth”. Besides, in assay [4] (1 μM), the LSCC cell growth entry is “significantly decreased LSCC cell growth”. Also, in assay [5] (72-hour MTS assay), the “rescue of drug-induced loss of viability by LZK^Q240S expression” value is “rescued decreases in viability”. For the same molecule, in assay [6], the “duration of JNK pathway inactivation” value stood at 72 h; the “time at which LZK activity toward JNK was inhibited” value is on record as “five”; the “LZK inhibition in cells, measured by inhibition of downstream JNK pathway activation” value is “potent LZK inhibitor”. In assay [6] (1 hour), the “concentration at which LZK activity was suppressed” value is recorded as 100 nM. The “JNK signaling inhibition compared with GNE-3511” value in assay [6] (one hour) is on record as “inhibited JNK signaling at lower concentrations than GNE-3511”.

As to `Cc1ncsc1-c1ccc([C@H](C)NC(=O)[C@@H]2C[C@@H](O)CN2C(=O)[C@@H](NC(=O)CCCCCCC(=O)N2CCC(c3cc(Nc4cc(C#N)ccn4)nc(N4CCC(F)(F)C4)c3)CC2)C(C)(C)C)cc1` [Compound 3], the clonogenic growth entry in assay [1] (1 μM for 14 days) and in assay [2] (1 μM for 14 days) was “significant decreases in clonogenic growth” throughout. Moreover, the colony formation result in assay [1] (2.5 μM) and in assay [2] (2.5 μM) was “almost complete loss of colony formation” throughout. Moreover, the LSCC cell growth result in assay [3] (2.5 μM) and in assay [4] (2.5 μM) was “significantly decreased LSCC cell growth” in each case. The short-term cell viability entry in assay [5] was “reduced”. In assay [6] (CAL33 cells induced with doxycycline, 0-10 μM), the “JNK signaling inhibition by targeted degraders” value was “inhibited JNK signaling”.

The values are drawn from US20240190838A1, “LZK-TARGETING DEGRADERS AND METHODS OF USE” (The U.S.A., as represented by the Secretary, Department of …, priority 2020, published 2024).
